We go through twelve compounds from ChEMBL document CHEMBL1201862, “PubChem BioAssay data set” (2004).

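96-well plates; 48 h exposure; 5 concentrations. Endpoints by linear interpolation between flanking doses. Not reached: highest tested concentration assigned. GI50 marks 50% less growth.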 Activity calls are given as the source filed them. No stated cut-off is given here; in the data, active = GI50 up to about 1.1 µM and inactive = higher. A value given as a limit tells only on which side of the number the result lay.

Some test systems named below: A498; COLO 205; HCT-116; HT-29; K562; LOX IMVI; MOLT-4; NCI-H460; OVCAR-8; RXF 393; SF-268; SK-MEL-2; SK-OV-3; SW-620; TK-10; U-251; UACC-62; PC-3; T47D.
Test in all cases: NCI-60 cell line screen, 48 h

For `COc1c(CC(C)=O)ccc2c1C(=O)c1ccc(C=O)c(OC(C)=O)c1C2=O`, the GI50 in the test on A498 is 27.3 µM (inactive); in the test with COLO 205, 16.1 µM (inactive); in the test with HCT-116, 11.9 µM (inactive); in the test with HT-29, 13.9 µM (inactive); with K562 it was 11.6 µM (inactive); with LOX IMVI it was 14.3 µM (inactive). Also, the GI50 with MOLT-4 was 11.4 µM (inactive); with NCI-H460, 23.3 µM (inactive); in the test on OVCAR-8 it was 9.51 µM (inactive); in the test on RXF 393, 4.09 µM (inactive); in the test with SF-268 it was 4.38 µM (inactive); in the test with SK-MEL-2, 15.2 µM (inactive). Further, the GI50 in the test with SK-OV-3 was 55.5 µM (inactive); in the test on SW-620, 12.6 µM (inactive); in the test with TK-10 it was 27.5 µM (inactive); in the test on U-251, 13.9 µM (inactive); with UACC-62, 4.55 µM (inactive).

As to `CCOc1ccccc1NC(=O)C(=O)c1c(O)c2ccc(O)cc2oc1=O`, the GI50 with A498, with COLO 205, with HCT-116, with HT-29, in the test with K562 and with LOX IMVI was > 100 µM (inactive) each time. For the same compound, the GI50 with MOLT-4, in the test on NCI-H460, in the test on OVCAR-8, in the test with RXF 393, with SF-268 and in the test on SK-MEL-2 was > 100 µM (inactive) throughout. For the same compound, the GI50 in the test with SK-OV-3, in the test on SW-620, in the test on TK-10, with U-251 and in the test on UACC-62 was > 100 µM (inactive) each time.

Take `COc1cc(OC)c2c(c1)C(=O)C(CC(C)O)=CC2=O` (configuration not stated): the GI50 is 17.8 µM (inactive) in the test with A498; 18.6 µM (inactive) with COLO 205; 12.5 µM (inactive) with HCT-116; 19.1 µM (inactive) in the test on HT-29; 14.9 µM (inactive) with K562; 5.97 µM (inactive) with LOX IMVI. Also, the GI50 with MOLT-4 is 3.89 µM (inactive); in the test on NCI-H460, 23.6 µM (inactive); in the test on OVCAR-8, 15.7 µM (inactive); in the test on RXF 393, 12.7 µM (inactive); in the test on SF-268 it was 18.2 µM (inactive); with SK-MEL-2, 19.7 µM (inactive). Also, the GI50 is 18 µM (inactive) with SK-OV-3; 17.8 µM (inactive) in the test with SW-620; 19.9 µM (inactive) with TK-10; 17.9 µM (inactive) in the test on U-251; 11.8 µM (inactive) in the test with UACC-62.

As to `CCOc1ccccc1NC(=O)C(C#N)C1=C(Cl)C(=O)c2ccccc2C1=O` (configuration not stated), the GI50 in the test on A498 was 19.8 µM (inactive); with COLO 205 it was 1.98 µM (inactive); in the test on HCT-116, 1.95 µM (inactive); in the test with HT-29, 2.29 µM (inactive); in the test on K562, 1.58 µM (inactive); in the test on LOX IMVI, 0.74 µM (active). The GI50 in the test on MOLT-4 is 1.17 µM (inactive); with NCI-H460, 1.79 µM (inactive); with OVCAR-8, 0.792 µM (active); with RXF 393, 1.97 µM (inactive); with SF-268, 2.11 µM (inactive); in the test on SK-MEL-2 it was 1.55 µM (inactive). The GI50 is 26.2 µM (inactive) with SK-OV-3; 1.78 µM (inactive) with SW-620; 2.22 µM (inactive) with TK-10; 1.71 µM (inactive) in the test with U-251; 1.83 µM (inactive) in the test on UACC-62.

Consider `Cc1ccc(S(=O)(=O)NC(=O)Nc2nnc(S(N)(=O)=O)s2)cc1`, for which the GI50 in the test with A498, with COLO 205, in the test on HCT-116, in the test on HT-29, in the test with K562 and in the test with LOX IMVI was > 100 µM (inactive) throughout. Also, the GI50 with MOLT-4, with NCI-H460, in the test on OVCAR-8, with PC-3, in the test on RXF 393 and with SF-268 was > 100 µM (inactive) throughout. For the same compound, the GI50 in the test on SK-MEL-2, in the test with SK-OV-3, in the test with SW-620, with TK-10, in the test on U-251 and with UACC-62 was > 100 µM (inactive) each time.

Consider `C/C(=C\c1ccccc1)C(O)S(=O)(=O)O` (configuration not stated), for which the GI50 in the test with A498, in the test on COLO 205, in the test with HCT-116, with HT-29, with K562 and in the test on LOX IMVI was > 100 µM (inactive) in each case. The GI50 in the test on MOLT-4, in the test on NCI-H460, in the test with OVCAR-8, in the test on RXF 393, with SF-268 and in the test on SK-MEL-2 was > 100 µM (inactive) each time. The GI50 in the test with SK-OV-3, in the test with SW-620, in the test with TK-10, in the test on U-251 and in the test with UACC-62 was > 100 µM (inactive) throughout.

On to `COc1c2c(c(OC)c3c(=O)cc(C/C(=N/NC(=O)C[n+]4ccccc4)C(=O)Nc4cc(C)ccc4C)oc13)OCO2`, for which the GI50 in the test with A498, in the test with COLO 205, with HCT-116, in the test on HT-29, in the test with K562 and in the test on LOX IMVI was > 100 µM (inactive) in each case. Besides, the GI50 with MOLT-4, in the test with NCI-H460, in the test on OVCAR-8, in the test with RXF 393, in the test on SF-268 and in the test on SK-MEL-2 was > 100 µM (inactive) throughout. Besides, the GI50 with SK-OV-3, in the test on SW-620, in the test with TK-10, with U-251 and in the test on UACC-62 was > 100 µM (inactive) in each case.

In the case of `COC(=O)CCC(NC(=S)N/N=C(\C)c1ccccn1)C(=O)OC` (configuration not stated), the GI50 in the test with A498 is > 100 µM (inactive); with COLO 205, 30 µM (inactive); with HCT-116, 60.8 µM (inactive); with HT-29, > 100 µM (inactive); with K562 it was 53.7 µM (inactive); in the test with LOX IMVI, 44.2 µM (inactive). Moreover, the GI50 is 24.2 µM (inactive) with MOLT-4; 65.8 µM (inactive) in the test with NCI-H460; 66.8 µM (inactive) in the test with OVCAR-8; 35 µM (inactive) with RXF 393; 52.1 µM (inactive) with SF-268; > 100 µM (inactive) in the test on SK-MEL-2. Also, the GI50 in the test on SK-OV-3 was > 100 µM (inactive); with SW-620 it was 55.3 µM (inactive); in the test with TK-10, > 100 µM (inactive); with U-251, 53.2 µM (inactive); with UACC-62, 34.8 µM (inactive).

`CCOc1ccc(NCc2cc(OC)c(OC)c(OC)c2)cc1`: the GI50 in the test on COLO 205 was 0.495 µM (active); in the test on HCT-116, 0.533 µM (active); with HT-29, 0.407 µM (active); in the test with K562 it was 0.269 µM (active); in the test on LOX IMVI, 0.918 µM (active); in the test on MOLT-4, 0.822 µM (active). The GI50 in the test on NCI-H460 was 0.614 µM (active); in the test on PC-3, 1.96 µM (inactive); with SF-268, 3.4 µM (inactive); with SK-OV-3 it was 1.17 µM (inactive); in the test on SW-620 it was 0.334 µM (active); in the test on U-251, 0.536 µM (active). Besides, in the test with UACC-62, the GI50 is 0.481 µM (active).

`CCN1C(=O)C(=CN)C(=O)N(CC)C1=O`: the GI50 in the test on A498, with COLO 205, in the test on HCT-116, with HT-29, in the test on K562 and with LOX IMVI was > 100 µM (inactive) in each case. Moreover, the GI50 in the test with MOLT-4, with NCI-H460, in the test on OVCAR-8, in the test with RXF 393, in the test with SF-268 and with SK-MEL-2 was > 100 µM (inactive) in each case. Also, the GI50 with SK-OV-3 was > 100 µM (inactive); with SW-620, > 100 µM (inactive); in the test on TK-10, 44.5 µM (inactive); in the test on U-251 it was 10 µM (inactive); in the test on UACC-62, > 100 µM (inactive).

As for `O=C1/C(=C/c2ccc(O)cc2)CCC1CNc1ccccc1` (configuration not stated), the GI50 is 17.9 µM (inactive) with A498; 11.1 µM (inactive) in the test with COLO 205; 5.64 µM (inactive) in the test with HCT-116; 11.5 µM (inactive) with HT-29; 1.5 µM (inactive) in the test on K562; 8.38 µM (inactive) in the test on LOX IMVI. In addition, the GI50 with MOLT-4 is 1.85 µM (inactive); in the test with NCI-H460 it was 26.3 µM (inactive); in the test with OVCAR-8, 16 µM (inactive); in the test with PC-3, 11.2 µM (inactive); in the test with RXF 393, 20.3 µM (inactive); in the test with SF-268, 14.8 µM (inactive). For the same compound, the GI50 was 22.5 µM (inactive) with SK-OV-3; 2.54 µM (inactive) in the test on SW-620; 10.3 µM (inactive) with T47D; 10.2 µM (inactive) in the test with TK-10; 16.4 µM (inactive) with U-251; 13.1 µM (inactive) in the test with UACC-62.

On to `Cc1ccc(S(=O)(=O)N/N=C/c2oc(-c3ccncc3)c(-c3ccncc3)c2[N+](=O)[O-])cc1`, for which the GI50 in the test with A498, in the test on COLO 205, with HCT-116, in the test with HT-29, with K562 and in the test with LOX IMVI was > 100 µM (inactive) each time. In addition, the GI50 in the test on MOLT-4, with NCI-H460, in the test with OVCAR-8, in the test on RXF 393, with SF-268 and in the test on SK-MEL-2 was > 100 µM (inactive) in each case. In addition, the GI50 in the test with SK-OV-3, in the test on SW-620, in the test on TK-10, with U-251 and with UACC-62 was > 100 µM (inactive) in each case.
